Laboratory results published in patent US20240024488A1, “COMPOUNDS AND USES THEREOF” (Foghorn Therapeutics Inc., priority 2020, published 2024).

Assays:
HiBit-BRM fusion protein = target: T1, HiBit-BRM fusion protein (Homo sapiens, UniProt P51531); test: HiBiT-BRM cell-based degradation assay (Nano-Glo HiBiT Lytic Detection, 24 h); details: HeLa cell line expressing HiBiT-BRM; for DC50: read-out: BRM HiBit Degradation IC50
T1 construct: expressed in transfected cells
Experimental: (§1) Procedure: A stable HeLa cell line expressing HiBiT-BRM was generated. On day 0, 5000 cells were seeded in 40 μL of media into each well of 384-well cell culture plates. On day 1, cells were treated with 120 nL DMSO or 120 nL of 3-fold serially DMSO-diluted compounds (10 points in duplicate with 30 μM as final top dose). Subsequently plates were incubated for 24 h in a standard tissue culture incubator and equilibrated at room temperature for 15 minutes. Nano-Glo HiBiT Lytic Detection System (Promega N3050) reagent was freshly prepared and 20 ul was added to each well. Upon addition of this LgBit-containing reagent, the HiBiT and LgBiT proteins associate to form the luminescent NanoBiT luciferase. The plates were shaken for 10 minutes at room temperature and the bioluminescence read using an EnVision plate reader (PerkinElmer).
(§2) The degradation % was calculated using the following formula: % degradation=100%−100%×(LumSample−LumLC)/(LumHC−LumLC). DMSO treated cells are employed as High Control (HC) and 2 μM of a known BRM/BRG1 degrader standard treated cells are employed as Low Control (LC).

[1] = target: T2, HiBit-BRG1 fusion protein (Homo sapiens, UniProt P51532); test: HiBiT-BRG1 cell-based degradation assay (Nano-Glo HiBiT Lytic Detection, 24 h); details: HeLa cell line expressing HiBit-BRG1 and LgBit; for Dmax: read-out: BRG1 HiBit Degradation Maximum (%)
T2 construct: expressed in transfected cells
T2 sequence (P51532 whole entry, the tested form may be a part): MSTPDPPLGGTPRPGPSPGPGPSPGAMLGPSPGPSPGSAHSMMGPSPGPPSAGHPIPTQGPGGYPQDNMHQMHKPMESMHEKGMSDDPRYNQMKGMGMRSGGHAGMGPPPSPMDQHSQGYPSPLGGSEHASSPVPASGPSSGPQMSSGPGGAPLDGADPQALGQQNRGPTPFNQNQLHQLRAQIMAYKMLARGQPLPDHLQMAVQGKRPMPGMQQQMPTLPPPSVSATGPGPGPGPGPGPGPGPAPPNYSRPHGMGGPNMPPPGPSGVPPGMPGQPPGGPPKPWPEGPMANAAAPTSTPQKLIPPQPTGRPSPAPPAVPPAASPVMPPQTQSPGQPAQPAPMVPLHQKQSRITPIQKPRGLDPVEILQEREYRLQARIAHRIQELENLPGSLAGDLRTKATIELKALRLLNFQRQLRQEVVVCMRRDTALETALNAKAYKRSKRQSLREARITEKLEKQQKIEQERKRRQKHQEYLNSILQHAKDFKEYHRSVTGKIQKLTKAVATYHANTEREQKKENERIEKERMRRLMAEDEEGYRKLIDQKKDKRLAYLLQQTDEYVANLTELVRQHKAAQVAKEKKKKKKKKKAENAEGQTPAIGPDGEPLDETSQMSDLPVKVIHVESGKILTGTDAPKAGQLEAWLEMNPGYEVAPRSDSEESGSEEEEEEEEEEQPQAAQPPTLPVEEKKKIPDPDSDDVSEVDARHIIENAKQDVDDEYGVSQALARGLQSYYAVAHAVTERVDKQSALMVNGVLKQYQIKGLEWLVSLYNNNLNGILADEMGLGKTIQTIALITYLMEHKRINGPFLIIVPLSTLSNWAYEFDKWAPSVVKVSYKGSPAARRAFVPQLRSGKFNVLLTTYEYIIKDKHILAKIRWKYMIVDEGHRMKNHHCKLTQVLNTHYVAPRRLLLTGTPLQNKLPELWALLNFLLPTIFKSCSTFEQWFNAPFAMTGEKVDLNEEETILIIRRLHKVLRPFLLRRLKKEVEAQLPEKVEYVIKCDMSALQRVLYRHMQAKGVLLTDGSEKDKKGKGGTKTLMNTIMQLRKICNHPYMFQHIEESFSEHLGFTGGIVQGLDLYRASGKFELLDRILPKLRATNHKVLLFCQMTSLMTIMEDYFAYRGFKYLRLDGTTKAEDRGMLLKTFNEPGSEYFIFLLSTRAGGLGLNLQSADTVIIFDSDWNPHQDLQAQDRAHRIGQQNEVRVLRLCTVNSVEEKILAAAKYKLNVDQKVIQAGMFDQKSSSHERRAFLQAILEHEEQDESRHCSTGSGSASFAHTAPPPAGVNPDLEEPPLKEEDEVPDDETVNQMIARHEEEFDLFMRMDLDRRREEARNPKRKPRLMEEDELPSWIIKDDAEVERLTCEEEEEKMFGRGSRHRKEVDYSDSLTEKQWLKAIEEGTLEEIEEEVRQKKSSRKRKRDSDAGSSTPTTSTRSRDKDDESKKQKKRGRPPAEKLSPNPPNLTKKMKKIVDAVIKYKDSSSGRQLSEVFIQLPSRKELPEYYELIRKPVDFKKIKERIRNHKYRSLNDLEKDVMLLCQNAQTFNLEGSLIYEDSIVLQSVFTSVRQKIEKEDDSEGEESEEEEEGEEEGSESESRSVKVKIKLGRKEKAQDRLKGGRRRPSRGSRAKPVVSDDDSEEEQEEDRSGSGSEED
Experimental: as §1, with “On day 1, cells were treated with 120 nL DMSO or 120 nL of 3-fold serially DMSO-diluted compounds (10 points in duplicate with 30 μM as final top dose).” left out
For measurement of BRG1 degradation, a stable HeLa cell line expressing HiBit-BRG1 and LgBit was generated. The same protocol as above was then followed.
as §2

T1 sequence (P51531 whole entry, the tested form may be a part): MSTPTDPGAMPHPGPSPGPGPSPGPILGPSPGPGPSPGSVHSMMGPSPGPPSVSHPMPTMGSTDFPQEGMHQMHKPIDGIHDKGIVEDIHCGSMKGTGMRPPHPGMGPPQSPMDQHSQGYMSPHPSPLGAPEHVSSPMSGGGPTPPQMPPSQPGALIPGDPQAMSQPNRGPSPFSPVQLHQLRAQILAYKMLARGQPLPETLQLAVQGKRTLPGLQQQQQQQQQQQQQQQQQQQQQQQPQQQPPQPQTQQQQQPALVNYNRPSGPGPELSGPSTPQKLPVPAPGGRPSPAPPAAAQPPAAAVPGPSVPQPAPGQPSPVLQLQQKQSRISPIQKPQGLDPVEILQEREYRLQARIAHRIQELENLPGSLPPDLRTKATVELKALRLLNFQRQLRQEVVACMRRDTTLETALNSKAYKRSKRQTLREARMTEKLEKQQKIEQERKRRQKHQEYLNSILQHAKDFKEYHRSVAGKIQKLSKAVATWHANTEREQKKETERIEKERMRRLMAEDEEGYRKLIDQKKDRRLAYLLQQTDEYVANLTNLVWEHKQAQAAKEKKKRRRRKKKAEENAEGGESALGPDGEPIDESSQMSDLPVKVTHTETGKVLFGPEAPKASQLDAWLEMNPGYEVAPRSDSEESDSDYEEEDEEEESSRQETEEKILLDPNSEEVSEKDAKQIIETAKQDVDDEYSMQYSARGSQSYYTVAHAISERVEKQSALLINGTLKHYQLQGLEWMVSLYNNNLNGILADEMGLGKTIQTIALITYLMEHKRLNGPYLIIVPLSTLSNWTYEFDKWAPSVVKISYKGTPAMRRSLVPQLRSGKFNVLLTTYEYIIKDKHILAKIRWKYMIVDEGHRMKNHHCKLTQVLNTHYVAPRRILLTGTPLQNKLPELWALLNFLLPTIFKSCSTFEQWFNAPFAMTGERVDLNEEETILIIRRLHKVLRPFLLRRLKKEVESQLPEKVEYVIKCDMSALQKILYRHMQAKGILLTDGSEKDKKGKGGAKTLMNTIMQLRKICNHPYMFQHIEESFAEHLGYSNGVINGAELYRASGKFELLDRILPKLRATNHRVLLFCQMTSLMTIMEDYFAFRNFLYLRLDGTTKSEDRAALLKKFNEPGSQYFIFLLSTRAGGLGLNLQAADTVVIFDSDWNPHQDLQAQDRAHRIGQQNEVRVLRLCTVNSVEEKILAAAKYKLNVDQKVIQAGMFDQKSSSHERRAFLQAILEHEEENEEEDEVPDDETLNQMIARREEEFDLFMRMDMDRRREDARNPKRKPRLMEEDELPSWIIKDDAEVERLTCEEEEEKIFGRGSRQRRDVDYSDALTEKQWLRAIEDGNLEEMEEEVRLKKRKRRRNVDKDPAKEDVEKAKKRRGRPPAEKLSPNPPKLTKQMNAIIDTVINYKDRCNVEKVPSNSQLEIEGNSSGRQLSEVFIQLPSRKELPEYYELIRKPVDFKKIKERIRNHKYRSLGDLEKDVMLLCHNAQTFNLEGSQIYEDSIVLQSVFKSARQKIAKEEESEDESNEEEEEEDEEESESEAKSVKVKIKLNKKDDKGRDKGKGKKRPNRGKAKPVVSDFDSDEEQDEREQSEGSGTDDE

Row | SMILES | BRM HiBit Degradation Maximum (%) (HiBit-BRM fusion protein) | DC50 (HiBit-BRM fusion protein) [µM] | Dmax [1] [%] | DC50 ([1]; read-out: BRMG1 HiBit Degradation IC50) [µM]
1 | Cc1ncsc1-c1ccc([C@H](C)NC(=O)[C@@H]2C[C@@H](O)CN2C(=O)[C@@H](c2cc([C@H]3CC[C@@H](c4cnc(N5CCC(c6c[nH]c7nnc(-c8ccccc8O)cc67)CC5)nc4)CC3)no2)C(C)C)cc1 (racemic) [Compound 68, (2S,4R)-4-hydroxy-N-[(1S)-1-[4-(4-methyl-1,3-thiazol-5-yl)phenyl]ethyl]-1-[(2R)-3-methyl-2-{3-[(1s,4s)-4-(2-{4-[3-(2-hydroxyphenyl)-7H-pyrrolo[2,3-c]pyridazin-5-yl]piperidin-1-yl}pyrimidin-5-yl)cyclohexyl]-1,2-oxazol-5-yl}butanoyl]pyrrolidine-2-carboxamide] | A (“A” indicates maximum degradation ≥ 75%) | > 0.01 | < 50 | 
2 | Cc1ncsc1-c1ccc([C@H](C)NC(=O)[C@@H]2C[C@@H](O)CN2C(=O)[C@@H](c2cc(C3CCN(C(=O)[C@H]4C[C@@]5(Cc6cc(-c7ccccc7O)nnc6N5)C4)CC3)no2)C(C)C)cc1 (racemic) [Compound 69, (2S,4R)-4-hydroxy-1-((R)-2-(3-(1-((1R,3s)-3′-(2-hydroxyphenyl)-5′,7′-dihydrospiro[cyclobutane-1,6′-pyrrolo[2,3-c]pyridazine]-3-carbonyl)piperidin-4-yl)isoxazol-5-yl)-3-methylbutanoyl)-N-((S)-1-(4-(4-methylthiazol-5-yl)phenyl)ethyl)pyrrolidine-2-carboxamide] | A (“A” indicates maximum degradation ≥ 75%) | > 0.01 | < 50 | 
3 | Cc1ncsc1-c1ccc([C@H](C)NC(=O)[C@@H]2C[C@@H](O)CN2C(=O)[C@@H](c2cc(OCCNC(=O)[C@H]3C[C@@]4(Cc5cc(-c6ccccc6O)nnc5N4)C3)no2)C(C)C)cc1 (racemic) [Compound 70, (1R,3s)-N-(2-((5-((R)-1-((2S,4R)-4-hydroxy-2-(((S)-1-(4-(4-methylthiazol-5-yl)phenyl)ethyl)carbamoyl)pyrrolidin-1-yl)-3-methyl-1-oxobutan-2-yl)isoxazol-3-yl)oxy)ethyl)-3′-(2-hydroxyphenyl)-5′,7′-dihydrospiro[cyclobutane-1,6′-pyrrolo[2,3-c]pyridazine]-3-carboxamide] | B (“B” indicates maximum degradation ≥ 50%) | > 0.1 | < 50 | 
4 | Cc1ncsc1-c1ccc([C@H](C)NC(=O)[C@@H]2C[C@@H](O)CN2C(=O)[C@@H](c2cc(OCCNC(=O)[C@H]3C[C@]4(Cc5cc(-c6ccccc6O)nnc5N4)C3)no2)C(C)C)cc1 (racemic) [Compound 71, (1S,3r)-N-(2-((5-((R)-1-((2S,4R)-4-hydroxy-2-(((S)-1-(4-(4-methylthiazol-5-yl)phenyl)ethyl)carbamoyl)pyrrolidin-1-yl)-3-methyl-1-oxobutan-2-yl)isoxazol-3-yl)oxy)ethyl)-3′-(2-hydroxyphenyl)-5′,7′-dihydrospiro[cyclobutane-1,6′-pyrrolo[2,3-c]pyridazine]-3-carboxamide] | A (“A” indicates maximum degradation ≥ 75%) | > 0.1 | < 50 | 
5 | Cc1ncsc1-c1ccc([C@H](C)NC(=O)[C@@H]2C[C@@H](O)CN2C(=O)[C@@H](c2cc(N3C[C@@H]4C[C@H]3CN4C(=O)[C@H]3C[C@@]4(Cc5cc(-c6ccccc6O)nnc5N4)C3)no2)C(C)C)cc1 (racemic) [Compound 72, (2S,4R)-4-hydroxy-1-((R)-2-(3-((1S,4S)-5-((1S,3s)-3′-(2-hydroxyphenyl)-5′,7′-dihydrospiro[cyclobutane-1,6′-pyrrolo[2,3-c]pyridazine]-3-carbonyl)-2,5-diazabicyclo[2.2.1]heptan-2-yl)isoxazol-5-yl)-3-methylbutanoyl)-N-((S)-1-(4-(4-methylthiazol-5-yl)phenyl)ethyl)pyrrolidine-2-carboxamide] | B (“B” indicates maximum degradation ≥ 50%) | > 1 | < 50 | 
6 | Cc1ncsc1-c1ccc([C@H](C)NC(=O)[C@@H]2C[C@@H](O)CN2C(=O)[C@@H](c2cc(N3CCC(C(=O)NC(=N)N4CCc5[nH]c6nnc(-c7ccccc7O)cc6c5C4)CC3)no2)C(C)C)cc1 (racemic) [Compound 74, 1-{5-[(2R)-1-[(2S,4R)-4-hydroxy-2-{[(1S)-1-[4-(4-methyl-1,3-thiazol-5-yl)phenyl]ethyl]carbamoyl}pyrrolidin-1-yl]-3-methyl-1-oxobutan-2-yl]-1,2-oxazol-3-yl}-N-[12-(2-hydroxyphenyl)-4,8,10,11-tetraazatricyclo[7.4.0.0^{2,7}]trideca-1(13),2(7),9,11-tetraene-4-carboximidoyl]piperidine-4-carboxamide] | A (“A” indicates maximum degradation ≥ 75%) | > 0.01 | < 50 | 
7 | Cc1ncsc1-c1ccc([C@H](C)NC(=O)[C@@H]2C[C@@H](O)CN2C(=O)[C@@H](c2cc(C3CCN(C(=O)[C@H]4C[C@]5(Cc6cc(-c7ccccc7O)nnc6N5)C4)CC3)no2)C(C)C)cc1 (racemic) [Compound 75, (2S,4R)-4-hydroxy-1-((R)-2-(3-(1-((1S,3r)-3′-(2-hydroxyphenyl)-5′,7′-dihydrospiro[cyclobutane-1,6′-pyrrolo[2,3-c]pyridazine]-3-carbonyl)piperidin-4-yl)isoxazol-5-yl)-3-methylbutanoyl)-N-((S)-1-(4-(4-methylthiazol-5-yl)phenyl)ethyl)pyrrolidine-2-carboxamide] | A (“A” indicates maximum degradation ≥ 75%) | > 0.01 | > 50 | > 0.1
8 | Cc1ncsc1-c1ccc([C@H](C)NC(=O)[C@@H]2C[C@@H](O)CN2C(=O)[C@@H](c2cc(N3C[C@H]4C[C@@H]3CN4C(=O)[C@H]3C[C@]4(Cc5cc(-c6ccccc6O)nnc5N4)C3)no2)C(C)C)cc1 (racemic) [Compound 76, (2S,4R)-4-hydroxy-1-((R)-2-(3-((1R,4R)-5-((1S,3r)-3′-(2-hydroxyphenyl)-5′,7′-dihydrospiro[cyclobutane-1,6′-pyrrolo[2,3-c]pyridazine]-3-carbonyl)-2,5-diazabicyclo[2.2.1]heptan-2-yl)isoxazol-5-yl)-3-methylbutanoyl)-N-((S)-1-(4-(4-methylthiazol-5-yl)phenyl)ethyl)pyrrolidine-2-carboxamide] | A (“A” indicates maximum degradation ≥ 75%) | > 0.1 | < 50 | 
9 | Cc1ncsc1-c1ccc([C@H](C)NC(=O)[C@@H]2C[C@@H](O)CN2C(=O)[C@@H](c2cc(N3C[C@@H]4C[C@H]3CN4C(=O)[C@H]3C[C@]4(Cc5cc(-c6ccccc6O)nnc5N4)C3)no2)C(C)C)cc1 (racemic) [Compound 78, (2S,4R)-4-hydroxy-1-((R)-2-(3-((1S,4S)-5-((1R,3r)-3′-(2-hydroxyphenyl)-5′,7′-dihydrospiro[cyclobutane-1,6′-pyrrolo[2,3-c]pyridazine]-3-carbonyl)-2,5-diazabicyclo[2.2.1]heptan-2-yl)isoxazol-5-yl)-3-methylbutanoyl)-N-((S)-1-(4-(4-methylthiazol-5-yl)phenyl)ethyl)pyrrolidine-2-carboxamide] | A (“A” indicates maximum degradation ≥ 75%) | > 0.1 | < 50 | 
10 | Cc1ncsc1-c1ccc([C@H](C)NC(=O)[C@@H]2C[C@@H](O)CN2C(=O)[C@@H](c2cc(N3C[C@H]4C[C@@H]3CN4C(=O)[C@H]3C[C@@]4(Cc5cc(-c6ccccc6O)nnc5N4)C3)no2)C(C)C)cc1 (racemic) [Compound 79, (2S,4R)-4-hydroxy-1-((R)-2-(3-((1R,4R)-5-((1R,3s)-3′-(2-hydroxyphenyl)-5′,7′-dihydrospiro[cyclobutane-1,6′-pyrrolo[2,3-c]pyridazine]-3-carbonyl)-2,5-diazabicyclo[2.2.1]heptan-2-yl)isoxazol-5-yl)-3-methylbutanoyl)-N-((S)-1-(4-(4-methylthiazol-5-yl)phenyl)ethyl)pyrrolidine-2-carboxamide] | C (“C” indicates maximum degradation < 50%) |  | < 50 | 
11 | Cc1ncsc1-c1ccc([C@H](C)NC(=O)[C@@H]2C[C@@H](O)CN2C(=O)[C@@H](c2cc(N3CCN(C(=O)[C@H]4C[C@@]5(Cc6cc(-c7ccccc7O)nnc6N5)C4)CC3)no2)C(C)C)cc1 (racemic) [Compound 80, (2S,4R)-4-hydroxy-1-((R)-2-(3-(4-((1R,3s)-3′-(2-hydroxyphenyl)-5′,7′-dihydrospiro[cyclobutane-1,6′-pyrrolo[2,3-c]pyridazine]-3-carbonyl)piperazin-1-yl)isoxazol-5-yl)-3-methylbutanoyl)-N-((S)-1-(4-(4-methylthiazol-5-yl)phenyl)ethyl)pyrrolidine-2-carboxamide] | A (“A” indicates maximum degradation ≥ 75%) | > 0.01 | < 50 | 
